Legend:
[1] = PAMPA permeability; conditions: 5 hours at RT; for Papp at 5 h, 20 μM: PAMPA
Description: Parallel artificial membrane permeability (PAMPA) assay is a non-cell based assay designed to predict in vivo biological membrane permeability of drugs in early stage of drug discovery. […] The Corning Gentest Pre-coated PAMPA plate system was designed by 96-well insert system with a 0.45 μm PVDF (polyvinylidene fluoride) filter plate which has been pre-coated with structured tri-layers of phospholipids (lipid/oil/lipid) and a matched receiver microplate.
Donor solutions of test compounds (300 μL, 20 μM in PBS/MeOH 90:10) were added to each well of the donor plate. 200 μL of PBS/MeOH 90:10 was added to each well of the acceptor plate. The acceptor plate was coupled with the donor plate and incubated for 5 hours at room temperature (RT) without agitation. In each plate, compounds were tested in triplicate. At the end of the incubation, drug concentration in the initial donor solution, acceptor and the donor wells were determined using LC/MS/MS. A five (5) points standard curve from 0.1 to 1000 nM for each test compound were prepared. Analyte samples were diluted to within standard curve concentration with ACN/H2O 50:50 prior analysis.
All samples were analyzed by electrospray ionization (ESI) liquid chromatograph/mass spectrometry (LC/MS) system utilizing Sciex 5500 quadropule ion trap (Qtrap) mass spectrometry with Shidmazu Nexera X2 UHPLC. The LC-MS/MS instrument monitored each of the test compound in the study based of their respective mass-to-charge (m/z) transitions and MS parameters. Chromatographic separation was achieved on Phenomenex Luna C18 column (50×2.0 mm, 3 μm particle size) by using a gradient elution: mobile phase A contains 0.1% formic acid in water and mobile phase B contains 0.1% formic acid in acetonitrile; A/B (99:1) from 0 to 1 minutes; to A/B (1:99) from 1 to 4 minutes; A/B (1:99) from 4 to 8 minutes; to A/B (99:1) from 8 to 8.20 minutes; A/B (99:1) from 8.2 to 9 minutes. The flow rate was 0.4 mL/min and the column temperature was maintained at 35° C. and autosampler temperature at 4° C. For detection, the electrospray ionization operated in the positive mode using multiple reaction monitoring (MRM).
Data acquisition, and peak integrations were obtained by Analyst® Version 1.7.1 (Sciex) operating with Windows® (Microsoft). The standard curve regressions and sample concentrations were generated and calculated by Analyst®. Concentrations in the sample solutions were determined based on the measured peak area ratios from the response of the analyte to the internal standard with reference to the standard calibration curve. All sample calculations were calculated using a linear regression with 1/x^2 weighting (where x is the concentration of given calibration standard level).
Permeability of the test compounds was calculated using the following formula:
The permeability of compounds was evaluated with the parallel artificial membrane permeation assay (PAMPA) as an in vivo model of passive diffusion across a porous filter coated with a lipid/oil/lipid tri-layer artificial membrane. […] Donor solutions of test compounds (300 μL, 20 μM in PBS/MeOH 90:10) were added to each well of the donor plate. 200 μL of PBS/MeOH 90:10 was added to each well of the acceptor plate. The acceptor plate was coupled with the donor plate and incubated for 5 hours at room temperature (RT) without agitation. In each plate, compounds were tested in triplicate. At the end of the incubation, drug concentration in the initial donor solution, acceptor and the donor wells were determined using LC/MS/MS. Permeability of test compounds was calculated based on the formula described in the General Procedures above. The PAMPA permeability classification criteria are categorized into three (3) classes with a high (Pe≥1.5×10−6 cm/s), intermediate (5.5×10−8<Pe<1.5×10−6 cm/s), and low (Pe<5.5×10−8 cm/s) permeability.

[2] = system: CaCo-2 intestinal epithelial cells; test: Transepithelial resistance (TEER) of CaCo-2 cells exposed to TNFα and IFNγ; assay type: cell-based; conditions: CaCo-2; TNFα along with compounds
Description: The intestinal epithelial barrier plays a central role in the pathophysiology of multiple chronic inflammatory and autoimmune diseases. Intestinal epithelial cells provide a physical barrier that interacts with immune cells and protects internal cavities from mucosal bacterial and antigen intrusion. Intestinal inflammation during IBD is associated with disruption of this barrier and cytokines like TNFα play important roles.
At confluence TEER is measured and TNFα along with compounds are added as described above. Compound-induced TEER is determined after correction with measurement prior to treatment.

[3] = system: C57BL/6 mice with DSS colitis; test: DSS colitis in C57BL/6 mice; assay type: in vivo; conditions: 25 mg/kg PO daily; day twelve
Description: Dextran sodium sulfate (DSS) was added to the water 24 hrs after compound administration and weight was measured daily.
C57BL/6 mice (20-22 grams) were fed ad lib and assigned to 4 different groups (n=8/group). […] A control group received vehicle alone. After 24 hrs, mice were weighed and DSS was added to their drinking water. Mice were then treated with the test compounds and weighed daily and the DSS water was replenished every 72 hrs for 5 days, at which point, it was replaced by regular drinking water. Mice were sacrificed on day twelve and clinical scored was assessed. Intestinal tissue for and blood were also collected. Tissues were either flash frozen and kept in −80° C. for RNA and protein isolation or placed in 10% formalin solution for future histological analysis. Blood was spun at 5K rpm for 5 min and serum was collected and kept at −20° C. for multiplex cytokine analysis.
DSS colitis mouse model: C57BL/6 mice (20-22 grains) are fed ad lib and assigned to different groups (n=8/group). […] A control group receives vehicle alone. After 24 h, mice are weighed and DSS is added to their drinking water. Mice are then treated with the test compounds and weighed daily and the DSS water is replenished every 72 liars for 5 days, at which point, it is replaced by regular drinking water. Mice are sacrificed on day twelve and clinical scored was assessed. Intestinal tissue for and blood are also collected. Tissues are either flash frozen and kept in −80° C. for RNA and protein isolation or placed in 10% formalin solution for future histological analysis.

[4] = PAMPA permeability Classification, 20 μM donor
[5] = Permeability, Pe, 20 μM donor in PBS/MeOH 90:10

Compound	Permeability, Pe ([1]; 20 μM donor in PBS/MeOH 90:10)	TEER [2]	DSS Efficacy [3]	Papp at 5 h, 20 μM [1, 4]	Papp at 5 h, 20 μM [1, 5]
4-(4-((1-cyclopropylpiperidin-4-yl)amino)-6-methoxy-7-(3-(pyrrolidin-1-yl)propoxy)quinazolin-2-yl)thiomorpholine 1,1-dioxide [Compound 405, reference compound]	0.101 ×10⁻⁶ cm/s				
COc1cc2c(N[C@@H]3CCCOC3)nc(N3CCC(F)(F)CC3)nc2cc1OCCCN1CCCC1 [Compound 12, (R)-2-(4,4-difluoropiperidin-1-yl)-6-methoxy-7-(3-(pyrrolidin-1-yl)propoxy)-N-(tetrahydro-2H-pyran-3-yl)quinazolin-4-amine]		++	++		
COc1cc2c(NC3CCCOC3)nc(N3CCC(F)(F)CC3)nc2cc1OCCCN1CCCC1 (centres unmarked) [Compound 14, 2-(4,4-difluoropiperidin-1-yl)-6-methoxy-7-(3-(pyrrolidin-1-yl)propoxy)-N-(tetrahydro-2H-pyran-3-yl)quinazolin-4-amine]		+	++		
COc1cc2c(NC3CCCS(=O)(=O)C3)nc(N3CCC(F)(F)CC3)nc2cc1OCCCN1CCCC1 (centres unmarked) [Compound 15, 3-((2-(4,4-difluoropiperidin-1-yl)-6-methoxy-7-(3-(pyrrolidin-1-yl)propoxy)quinazolin-4-yl)amino)tetrahydro-2H-thiopyran 1,1-dioxide]		++	+		
COc1cc2c(NCN3CCOCC3)nc(N3CCC(F)(F)CC3)nc2cc1OCCCN1CCCC1 [Compound 17, 2-(4,4-difluoropiperidin-1-yl)-6-methoxy-N-(morpholinomethyl)-7-(3-(pyrrolidin-1-yl)propoxy)quinazolin-4-amine]		+	+		
COc1cc2c(NCCCOC(C)C)nc(N3CCC(F)(F)CC3)nc2cc1OCCCN1CCCC1 [Compound 21, 2-(4,4-difluoropiperidin-1-yl)-N-(3-isopropoxypropyl)-6-methoxy-7-(3-(pyrrolidin-1-yl)propoxy)quinazolin-4-amine]		−	+		
COc1cc2c(N[C@]3(N(C)C)C[C@@H](C)O[C@@H](C)C3)nc(N3CCC(F)(F)CC3)nc2cc1OCCCN1CCCC1 [Compound 25, (2R,4r,6S)—N-(2-(4,4-difluoropiperidin-1-yl)-6-methoxy-7-(3-(pyrrolidin-1-yl)propoxy)quinazolin-4-yl)-N′,N′,2,6-tetramethyltetrahydro-4H-pyran-4,4-diamine]		+	+		
COc1cc2c(Nc3ccccn3)nc(N3CCC(F)(F)CC3)nc2cc1OCCCN1CCCC1 [Compound 34, 2-(4,4-difluoropiperidin-1-yl)-6-methoxy-N-(pyridin-2-yl)-7-(3-(pyrrolidin-1-yl)propoxy)quinazolin-4-amine]		−	−		
COc1cc2c(NCC#N)nc(N3CCC(F)(F)CC3)nc2cc1OCCCN1CCCC1 [Compound 49, 2-((2-(4,4-difluoropiperidin-1-yl)-6-methoxy-7-(3-(pyrrolidin-1-yl)propoxy)quinazolin-4-yl)amino)acetonitrile]		−	−		
COc1cc2c(NCO)nc(N3CCC(F)(F)CC3)nc2cc1OCCCN1CCCC1 [Compound 61, ((2-(4,4-difluoropiperidin-1-yl)-6-methoxy-7-(3-(pyrrolidin-1-yl)propoxy)quinazolin-4-yl)amino)methanol]		+	+		
COc1cc2c(NC3CCS(=O)(=O)CC3)nc(N3CCC3)nc2cc1OCCCN1CCCC1 [Compound 81, 4-((2-(azetidin-1-yl)-6-methoxy-7-(3-(pyrrolidin-1-yl)propoxy)quinazolin-4-yl)amino)tetrahydro-2H-thiopyran 1,1-dioxide]		+	++		
COc1cc2c(NC3CCS(=O)(=O)CC3)nc(C3CC3)nc2cc1OCCCN1CCCC1 [Compound 99, 4-((2-cyclopropyl-6-methoxy-7-(3-(pyrrolidin-1-yl)propoxy)quinazolin-4-yl)amino)tetrahydro-2H-thiopyran 1,1-dioxide]		++	++		
COc1cc2c(NC3CCS(=O)(=O)CC3)nc(SC(C)C)nc2cc1OCCCN1CCCC1 [Compound 105]		+	+		
COc1cc2c(NC3CCCS(=O)(=O)C3)nc(N3CCC3)nc2cc1OCCCN(C)C (centres unmarked) [Compound 137]		+	+		
COc1cc2c(NC3CCOCC3)nc(N3CCCCC3)nc2cc1OCCCN1CCCC1 [Compound 173, 6-methoxy-2-(piperidin-1-yl)-7-(3-(pyrrolidin-1-yl)propoxy)-N-(tetrahydro-2H-pyran-4-yl)quinazolin-4-amine]		++	++		
COc1cc2c(NC3CCOCC3)nc(-c3ccc(C)o3)nc2cc1OCCCN1CCCC1 [Compound 180, 6-methoxy-2-(5-methylfuran-2-yl)-7-(3-(pyrrolidin-1-yl)propoxy)-N-(tetrahydro-2H-pyran-4-yl)quinazolin-4-amine]		++	++		
COc1cc2c(NCN3CCNCC3)nc(-c3cnc(C)s3)nc2cc1OCCCN1CCCC1 [Compound 213]		+	+		
COc1cc2c(NC3CCOCC3)nc(N3CCCC3)nc2cc1C#CCN1CCCC1 [Compound 250]		++	++		
COc1cc2c(NC3CCS(=O)(=O)CC3)nc(N3CCCC3)nc2cc1C#CCN1CCCC1 [Compound 254]		+	+		
COc1cc2c(NC3CCN(C(C)C)CC3)nc(N3CCCN(C)CC3)nc2cc1OCCCN1CCCCC1 [Compound 403, reference compound]				< 0.055 ×10⁻⁶ cm/s	0.0096 ×10⁻⁶ cm/s
COc1cc2c(NC3CCN(C(C)C)CC3)nc(N3CCOCC3)nc2cc1OCCCN1CCCC1 [Compound 404, reference compound]				< 0.055 ×10⁻⁶ cm/s	0.00624 ×10⁻⁶ cm/s

Source: patent US11485728B2, “Small molecules for the treatment of autoimmune diseases and cancer” (Athos Therapeutics, Inc., priority 2020, dated 2022)
